# Results as given in patent US6936615B2, “Heteroaryl derivatives and their use as medicaments” (Zentaris GmbH, priority 2000, dated 2005).
# Columns and labels:
# [1] = tested on: ovary adenocarcinoma line SKOV-3 (ATCC HTB77); assay: XTT test for cellular dehydrogenase activity (proliferation test), SKOV-3; format: cell-based; conditions: Homo sapiens, SK-OV-3, values determined from 5 substance concentrations, 45 h incubation + 3 h XTT, read-out: XTT-Assay IC50 SKOV-3 (in-vitro cytotoxicity)
# Description: (§1) In a proliferation test, the antiproliferative activity of the substance D-43411 was examined using established tumor cell lines. In the test used, the cellular dehydrogenation activity is determined, which makes it possible to determine the vitality of the cell and, indirectly, the cell count. The cell lines used are the human cervical carcinoma cell lines KB/HeLa (ATCC/CCL17), the murine lymphocyte leukaemia L1210 (ATCC CCL-219), the human breast adenocarcinoma line MCF7/ATCC HTB22) and the ovary adenocarcinoma line SKOV-3 (ATCC HTB77). These are established cell lines which are very well characterized and were obtained from ATCC and cultured.
# (§2) The adherently growing tumor cell lines HeLa/KB, SKOV-3 and MCF7 and the L1210 leukaemia line, which grows in suspension, were cultivated under standard conditions in an incubator with gas inlet at 37° C., 5% CO2 and 95% atmospheric humidity. […]
# (§3) For the XTT assay, 1 mg/ml of XTT (sodium 3′-[1-(phenylaminocarbonyl)-3,4-tetrazolium]-bis(4-methoxy-6-nitro)benzenesulfonic acid) is dissolved in RPMI-1640 medium without Phenol Red. […] The cell plates are then incubated in the incubator with gas inlet for a further 3 h, and the optical density (OD490nm) is determined in a photometer.
# (§4) Using the OD490nm obtained, the inhibition in percent relative to the control is calculated. […]
# [2] = tested on: murine lymphocyte leukaemia L1210 (ATCC CCL-219); assay: XTT test for cellular dehydrogenase activity (proliferation test), L1210; format: cell-based; conditions: Mus musculus, values determined from 5 substance concentrations, 45 h incubation + 3 h XTT, read-out: XTT-Assay IC50 L1210 (in-vitro cytotoxicity)
# Description: as §1, §2, §3, §4
# [3] = tested on: human breast adenocarcinoma line MCF7 (ATCC HTB22); assay: XTT test for cellular dehydrogenase activity (proliferation test), MCF7; format: cell-based; conditions: test period of 48 h
# Description: as §1, §2, §3, §4
# [4] = tested on: human cervical carcinoma cell lines KB/HeLa (ATCC/CCL17); assay: XTT test for cellular dehydrogenase activity (proliferation test), KB/HeLa; format: cell-based; conditions: values determined from 5 substance concentrations, 45 h incubation + 3 h XTT, read-out: XTT-Assay IC50 KB/HeLa (in-vitro cytotoxicity)
# Description: as §1, §2, §3, §4
melting point [°C],Compound,IC50 [1] [ng/mL],IC50 [2] [ng/mL],"IC50 ([3]; Homo sapiens, values determined from 5 substance concentrations, read-out: XTT-Assay IC50 MCF7 (in-vitro cytotoxicity)) [ng/mL]",inhibition (antiproliferative effect) in MCF7 ([3]; at 3.16_g/ml) [%],IC50 [4] [ng/mL]
,COc1cc(OC)cc(N2CCN(C(=O)C3c4ccccc4NC4C=CC=CC43)CC2)c1 [D-43411],< 0.3,< 0.3,> 3160,18,< 0.3
146 to 148,COc1cc(OC)cc(N2CCN(C(=O)c3ccnc4ccccc34)CC2)c1,,,,,
